In brackets after ≈: the same amount, converted by molar mass. Values belong to the compound of their own block, whether it stands above or below them.
Key:
Assay in all cases: ≥ marks a high value that may be exact or a test limit, other limits are often not marked, values filed in µg/mL are converted to µM
[1] = tested on: Pseudomonas aeruginosa ATCC 27853
[2] = tested on: Enterococcus faecium ATCC 29212
[3] = tested on: Vibrio vulnificus ATCC 29307
[4] = tested on: Streptococcus mutans KCTC 3065
[5] = tested on: Candida albicans ATCC 90028
[6] = tested on: Trichosporon beigelii KCTC 7707
[7] = tested on: Malassezia furfur KCTC 7744
[8] = tested on: Escherichia coli O157:H7 ATCC 43895
[9] = tested on: Staphylococcus aureus ATCC 25923
[10] = tested on: Escherichia coli ATCC 9723H
Escherichia coli NDM = tested on: Escherichia coli NDM
[11] = tested on: Staphylococcus aureus ATCC 6538P
[12] = tested on: Escherichia coli ATCC 25922
[13] = tested on: Pseudomonas aeruginosa ATCC 10148
Streptococcus pyogenes = tested on: Streptococcus pyogenes
Staphylococcus aureus MR = tested on: Staphylococcus aureus MR
[14] = tested on: Bacillus cereus ATCC 1015
[15] = tested on: Leuconostoc mesenteroides ATCC 1059
[16] = tested on: Staphylococcus epidermidis ATCC 1114
[17] = tested on: Staphylococcus aureus ST88
[18] = tested on: Escherichia coli K12 MG1655
Bacillus subtilis 168 HT = tested on: Bacillus subtilis 168 HT
[19] = tested on: Staphylococcus haemolyticus 527
[20] = tested on: Klebsiella pneumoniae ATCC 700603
[21] = tested on: Pseudomonas aeruginosa FADDI-PA070
[22] = tested on: Staphylococcus aureus ATCC 43300
[23] = tested on: Staphylococcus aureus NRS 1
[24] = tested on: Staphylococcus aureus NRS 17
[25] = tested on: Klebsiella pneumoniae ATCC BAA-2146
[26] = tested on: Streptococcus pneumoniae ATCC 700677
[27] = tested on: Acinetobacter baumannii ATCC 19606
[28] = tested on: Staphylococcus aureus VRSA1
[29] = tested on: Staphylococcus aureus VRSA10
[30] = tested on: Cutibacterium acnes PCM 2400
[31] = tested on: Cutibacterium acnes PCM 2334
[32] = tested on: Staphylococcus epidermidis ATCC 12228
[33] = tested on: Streptococcus parauberis PH0710
[34] = tested on: Vibrio alginolyticus KCCM 2928
[35] = tested on: Streptococcus parauberis KSP 28
[36] = tested on: Vibrio anguillarum TR14001NF
[37] = tested on: Streptococcus iniae FP5228
[38] = tested on: Vibrio campbellii KCCM 40684
[39] = tested on: Vibrio ordalii KCCM 41669
[40] = tested on: Vibrio harveyi ATCC 14126
[41] = tested on: Edwardsiella piscicida FSW 910410

MIC [1]: 12.7 µM (≈ 12.5 µg/mL)
MIC [2]: 25.4 µM (≈ 25 µg/mL)
MIC [4]: 12.7 µM (≈ 12.5 µg/mL)
MIC [5]: 25.4 µM (≈ 25 µg/mL)
MIC [6]: 12.7 µM (≈ 12.5 µg/mL)
MIC [7]: ≥ 50.9 µM
MIC [8]: 12.7 µM (≈ 12.5 µg/mL)
MIC [9]: 25.4 µM (≈ 25 µg/mL)
Compound: CSCC[C@H](NC(=O)CNC(=O)[C@H](C)NC(=O)[C@H](C)N)C(=O)NCC(=O)N[C@@H](Cc1ccccc1)C(=O)N[C@@H](Cc1ccccc1)C(=O)NCC(=O)N[C@@H](C)C(=O)N[C@@H](CCCN=C(N)N)C(N)=O [AAGMGFFGAR]
MIC [3]: 25.4 µM (≈ 25 µg/mL)

MIC (Staphylococcus aureus MR): 20.9 µM (≈ 30 µg/mL)
MIC [14]: 20.9 µM (≈ 30 µg/mL)
MIC [15]: 6.97 µM (≈ 9.99 µg/mL)
MIC [16]: 20.9 µM (≈ 30 µg/mL)
Compound: CC[C@H](C)[C@H](NC(=O)[C@H](CC(C)C)NC(=O)[C@@H]1CCCN1C(=O)[C@H](CC(C)C)NC(=O)[C@@H](N)Cc1ccccc1)C(=O)NCC(=O)N[C@@H](CCCCN)C(=O)N[C@@H](CC(C)C)C(=O)N[C@@H](CC(C)C)C(=O)N[C@@H](CO)C(=O)NCC(=O)N[C@@H](CC(C)C)C(=O)N[C@@H](Cc1ccc(O)cc1)C(N)=O [FLPLIGKLLSGLY]

The remaining lines, values behind:

Compound: CC[C@H](C)[C@H](NC(=O)[C@@H](NC(=O)[C@@H]1CCCN1C(=O)[C@H](Cc1ccccc1)NC(=O)[C@@H](N)Cc1ccccc1)[C@@H](C)CC)C(=O)N[C@@H](C)C(=O)N[C@@H](CCCN=C(N)N)C(=O)N[C@@H](CC(C)C)C(=O)N[C@@H](C)C(=O)N[C@@H](C)C(=O)N[C@@H](CCCCN)C(=O)N[C@H](C(=O)N[C@H](C(=O)N1CCC[C@H]1C(=O)N[C@@H](CO)C(=O)N[C@@H](CC(C)C)C(=O)N[C@H](C(=O)N[C@@H](CS)C(=O)N[C@@H](C)C(=O)N[C@H](C(=O)N[C@H](C(=O)N[C@@H](CCCCN)C(=O)N[C@@H](CCCCN)C(=O)N[C@@H](CS)C(=O)O)[C@@H](C)O)C(C)C)C(C)C)[C@@H](C)CC)C(C)C [FFPIIARLAAKVIPSLVCAVTKKC]
MIC [10]: 4.24 µM (≈ 11 µg/mL)
MIC (Escherichia coli NDM): 3.46 µM (≈ 8.97 µg/mL)
MIC [11]: 1.73 µM (≈ 4.48 µg/mL)
MIC [12]: 3.46 µM (≈ 8.97 µg/mL)
MIC [13]: ≥ 35 µM
MIC (Streptococcus pyogenes): ≥ 35 µM

Compound: CC[C@H](C)[C@H](NC(=O)[C@H](CCCCN)NC(=O)[C@@H](NC(=O)[C@@H](N)Cc1ccccc1)C(C)C)C(=O)N[C@@H](CC(C)C)C(=O)N[C@@H](C)C(=O)N[C@@H](CCCCN)C(=O)N[C@@H](CC(C)C)C(=O)N[C@H](C(=O)N[C@@H](CC(N)=O)C(=O)N[C@@H](Cc1ccc(O)cc1)C(=O)N[C@@H](C)C(=O)N[C@@H](CCCCN)C(=O)N[C@@H](CC(N)=O)C(=O)O)C(C)C [FVKILAKLVNYAKN]
MIC [17]: ≥ 100 µM
MIC [18]: ≥ 79 µM
MIC (Bacillus subtilis 168 HT): 19.8 µM (≈ 32.1 µg/mL)
MIC [19]: ≥ 100 µM

Compound: CC[C@H](C)[C@H](NC(=O)[C@@H](N)CC(C)C)C(=O)NCC(=O)N[C@@H](CC(C)C)C(=O)N[C@H](C(=O)N[C@@H](CO)C(=O)N[C@@H](CCCCN)C(=O)NCC(=O)N[C@H](C(=O)N[C@@H](CO)C(=O)N[C@H](C(=O)N[C@@H](CC(C)C)C(=O)N[C@H](C(=O)N[C@@H](CCCCN)C(=O)N[C@H](C(=O)N[C@H](C(=O)N[C@@H](CO)C(=O)N[C@@H](CCCCN)C(=O)N[C@@H](CCCCN)C(=O)N[C@H](C(=O)N[C@@H](CC(C)C)C(=O)N[C@@H](CCCCN)C(=O)N[C@@H](CCC(N)=O)C(N)=O)C(C)C)C(C)C)[C@@H](C)O)C(C)C)C(C)C)[C@@H](C)O)C(C)C [LIGLVSKGTSVLVKTVSKKVLKQ]
MIC [20]: > 9.6 µM
MIC [1]: > 9.6 µM
MIC [21]: 9.6 µM (≈ 23.3 µg/mL)
MIC [22]: > 9.6 µM
MIC [23]: 9.6 µM (≈ 23.3 µg/mL)
MIC [24]: 9.6 µM (≈ 23.3 µg/mL)
MIC [25]: 9.6 µM (≈ 23.3 µg/mL)
MIC [12]: > 9.6 µM
MIC [26]: 9.6 µM (≈ 23.3 µg/mL)
MIC [27]: > 9.6 µM
MIC [28]: 9.6 µM (≈ 23.3 µg/mL)
MIC [29]: 9.6 µM (≈ 23.3 µg/mL)

Compound: CC(C)C[C@H](NC(=O)[C@H](CO)NC(=O)[C@H](CCCCN)NC(=O)[C@H](CO)NC(=O)[C@H](C)NC(=O)[C@H](Cc1ccccc1)NC(=O)[C@H](Cc1ccccc1)NC(=O)[C@H](CCCN=C(N)N)NC(=O)CNC(=O)[C@H](Cc1ccc(O)cc1)NC(=O)[C@H](CC(=O)O)NC(=O)[C@H](CS)NC(=O)[C@H](CCCN=C(N)N)NC(=O)[C@@H](N)CC(C)C)C(=O)N[C@@H](Cc1ccc(O)cc1)C(=O)N[C@@H](CC(=O)O)C(=O)N1CCC[C@H]1C(=O)N[C@@H](CC(C)C)C(=O)N[C@@H](CCCCN)C(=O)N[C@@H](CCCCN)C(=O)N[C@@H](CCCN=C(N)N)C(=O)N[C@@H](CCCN=C(N)N)C(=O)O [LRCDYGRFFASKSLYDPLKKRR]
MIC [1]: > 735 µM
MIC [30]: 23 µM (≈ 62.5 µg/mL)
MIC [31]: 11.5 µM (≈ 31.3 µg/mL)
MIC [32]: 91.9 µM (≈ 250 µg/mL)
MIC [12]: > 735 µM
MIC [9]: 91.9 µM (≈ 250 µg/mL)

Compound: CC(C)C[C@H](NC(=O)[C@H](Cc1cnc[nH]1)NC(=O)CNC(=O)[C@@H]1CCCN1C(=O)[C@@H](NC(=O)[C@H](CCC(N)=O)NC(=O)[C@H](Cc1cnc[nH]1)NC(=O)[C@H](CC(C)C)NC(=O)[C@@H](NC(=O)[C@H](CCCCN)NC(=O)[C@@H]1CCCN1C(=O)[C@H](CC(C)C)NC(=O)[C@@H](N)Cc1ccc(O)cc1)C(C)C)[C@@H](C)O)C(=O)N[C@@H](CCCCN)C(=O)N1CCC[C@H]1C(=O)O [YLPKVLHQTPGHLKP]
MIC [33]: ≥ 205 µM
MIC [34]: ≥ 289 µM
MIC [35]: ≥ 289 µM
MIC [36]: ≥ 289 µM
MIC [37]: ≥ 51.1 µM
MIC [38]: ≥ 289 µM
MIC [39]: ≥ 289 µM
MIC [40]: ≥ 51.1 µM
MIC [41]: ≥ 289 µM
